US20240092773A1, “DIHYDRO-CYCLOPENTA-ISOQUINOLINE SULFONAMIDES DERIVATIVES” (UCB Biopharma SRL, priority 2019, published 2024)

The molecules below were run against IgE-Tb binding to soluble IgE receptor FcεR1α (Y131A mutation) (Homo sapiens, UniProt P01854, N146Q/N252Q) (assay: In vitro FRET assay: inhibition of binding of IgE-Tb to receptor FcεR1α-Y131A-AF488). Conditions: read-out: FRET IC50 range.
Chain of IgE-Tb binding to soluble IgE receptor FcεR1α (Y131A mutation) (P01854 whole entry N146Q/N252Q, looked up): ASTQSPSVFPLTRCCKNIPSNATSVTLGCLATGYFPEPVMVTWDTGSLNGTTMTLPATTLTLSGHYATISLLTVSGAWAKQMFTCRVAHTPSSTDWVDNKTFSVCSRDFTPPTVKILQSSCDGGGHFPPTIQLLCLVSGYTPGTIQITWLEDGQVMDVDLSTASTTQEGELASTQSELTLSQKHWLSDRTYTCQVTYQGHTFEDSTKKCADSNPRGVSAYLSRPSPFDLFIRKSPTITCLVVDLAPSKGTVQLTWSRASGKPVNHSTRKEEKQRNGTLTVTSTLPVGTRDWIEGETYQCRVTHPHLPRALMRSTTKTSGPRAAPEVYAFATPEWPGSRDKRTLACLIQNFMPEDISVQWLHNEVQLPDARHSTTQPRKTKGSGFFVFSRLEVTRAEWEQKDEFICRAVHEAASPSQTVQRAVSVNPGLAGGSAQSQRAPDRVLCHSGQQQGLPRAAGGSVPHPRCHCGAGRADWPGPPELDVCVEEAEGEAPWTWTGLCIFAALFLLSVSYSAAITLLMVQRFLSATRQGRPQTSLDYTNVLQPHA
`Cc1cncc(Nc2nncn2[C@@H]2CCc3c2cc(S(=O)(=O)NCC(C)C)c2cc(C4CC4)ncc32)c1` (single isomer, unassigned) [Example 89, (7R*)-3-cyclopropyl-N-(2-methylpropyl)-7-[3-[(5-methylpyridin-3-yl)amino]-1,2,4-triazol-4-yl]-8,9-dihydro-7H-cyclopenta[h]isoquinoline-5-sulfonamide] showed an IC50 of 1 to 10 nM. In the case of `CCNC(=O)N[C@@H]1CCc2c1cc(S(=O)(=O)NCC(C)C)c1cc(C3CC3)ncc21` (stereo in doubt) [Example 85, 1-ethyl-3-[(7R*)-3-cyclopropyl-5-(2-methylpropylsulfamoyl-8,9-dihydro-7H-cyclopenta[h]isoquinolin-7-yl]urea], the IC50 is reported as 10 to 50 nM. Molecule `COc1ccnc2c1ncn2C1CCc2c1cc(S(=O)(=O)NCC(C)(C)F)c1cc(C3CC3)ncc21` (stereo not shown) [Example 1, 3-cyclopropyl-N-(2-fluoro-2-methylpropyl)-7-(7-methoxyimidazo[4,5-b]pyridin-3-yl)-8,9-dihydro-7H-cyclopenta[h]isoquinoline-5-sulfonamide] has an IC50 of 100 to 2000 nM. In the case of `CC(C)CNS(=O)(=O)c1cc2c(c3cnc(C4CC4)cc13)C(Nc1nncn1-c1cccc3c1nnn3C)CC2` (stereo not shown) [Example 2, 3-cyclopropyl-N-isobutyl-9-[[4-(1-methylbenzotriazol-4-yl)-1,2,4-triazol-3-yl]amino]-8,9-dihydro-7H-cyclopenta[h]isoquinoline-5-sulfonamide], the IC50 is reported as 50 to 100 nM. Work on `CC(C)CNS(=O)(=O)c1cc2c(c3cnc(C4CC4)cc13)C(Nc1nncn1-c1ccnn1C)CC2` (stereo not shown) [Example 3, 3-cyclopropyl-N-isobutyl-9-[[4-(2-methylpyrazol-3-yl)-1,2,4-triazol-3-yl]amino]-8,9-dihydro-7H-cyclopenta[h]isoquinoline-5-sulfonamide] yielded an IC50 of 100 to 2000 nM. `CC(C)CNS(=O)(=O)c1cc2c(c3cnc(C4CC4)cc13)C(n1cnnc1Nc1ccnn1C)CC2` (stereo not shown) [Example 4, 3-cyclopropyl-N-isobutyl-9-[3-[(2-methylpyrazol-3-yl)amino]-1,2,4-triazol-4-yl]-8,9-dihydro-7H-cyclopenta[h]isoquinoline-5-sulfonamide] showed an IC50 of 100 to 2000 nM. In the case of `CC(C)CNS(=O)(=O)c1cc2c(c3cnc(C4CC4)cc13)C(Nc1nncn1-c1cncc(F)c1)CC2` (stereo not shown) [Example 5, 3-cyclopropyl-9-[[4-(5-fluoro-3-pyridyl)-1,2,4-triazol-3-yl]amino]-N-isobutyl-8,9-dihydro-7H-cyclopenta[h]isoquinoline-5-sulfonamide], the IC50 is reported as 100 to 2000 nM. `CC(C)CNS(=O)(=O)c1cc2c(c3cnc(C4CC4)cc13)C(n1cnnc1Nc1cncc(F)c1)CC2` (stereo not shown) [Example 6, 3-cyclopropyl-9-[3-[(5-fluoro-3-pyridyl)amino]-1,2,4-triazol-4-yl]-N-isobutyl-8,9-dihydro-7H-cyclopenta[h]isoquinoline-5-sulfonamide] was tested, and the IC50 was 100 to 2000 nM. With `CC(C)(F)CNS(=O)(=O)c1cc2c(c3cnc(C4CC4)cc13)CCC2C(=O)O` (stereo not shown) [Example 7, 3-cyclopropyl-5-[(2-fluoro-2-methylpropyl)sulfamoyl]-8,9-dihydro-7H-cyclopenta[h]isoquinoline-7-carboxylic Acid] the IC50 was 100 to 2000 nM. With `CC(C)(F)CNS(=O)(=O)c1cc2c(c3cnc(C4CC4)cc13)CCC2(O)c1cccnc1` (stereo not shown) [Example 10, 3-cyclopropyl-N-(2-fluoro-2-methylpropyl)-7-hydroxy-7-pyridin-3-yl-8,9-dihydrocyclopenta[h]isoquinoline-5-sulfonamide] the IC50 was 100 to 2000 nM. In the case of `CC(C)(F)CNS(=O)(=O)c1cc2c(c3cnc(C4CC4)cc13)CCC2c1cccnc1F` (stereo not shown) [Example 11, 3-cyclopropyl-N-(2-fluoro-2-methylpropyl)-7-(2-fluoropyridin-3-yl)-8,9-dihydro-7H-cyclopenta[h]isoquinoline-5-sulfonamide], the IC50 is reported as 100 to 2000 nM. `CC(C)CNS(=O)(=O)c1cc2c(c3cnc(C4CC4)cc13)C(NCc1cccnc1)CC2` (stereo not shown) [Example 14, 3-cyclopropyl-N-(2-methylpropyl)-9-(pyridin-3-ylmethylamino)-8,9-dihydro-7H-cyclopenta[h]isoquinoline-5-sulfonamide] gave an IC50 of 100 to 2000 nM. `CC(C)CNS(=O)(=O)c1cc2c(c3cnc(C4CC4)cc13)C(NS(=O)(=O)c1cccnc1)CC2` (stereo not shown) [Example 15, 3-cyclopropyl-N-(2-methylpropyl)-9-(pyridin-3-ylsulfonylamino)-8,9-dihydro-7H-cyclopenta[h]isoquinoline-5-sulfonamide] gave an IC50 of 100 to 2000 nM. For `Cn1c(NC2CCc3cc(S(=O)(=O)NCC(C)(C)F)c4cc(C5CC5)ncc4c32)nc2ccccc21` (stereo not shown) [Example 17, 3-cyclopropyl-N-(2-fluoro-2-methylpropyl)-9-[(1-methylbenzimidazol-2-yl)amino]-8,9-dihydro-7H-cyclopenta[h]isoquinoline-5-sulfonamide], the IC50 was 100 to 2000 nM. In the case of `COC(=O)c1ccc(NC2CCc3cc(S(=O)(=O)NCC(C)C)c4cc(C5CC5)ncc4c32)cn1` (stereo not shown) [Example 18, methyl 5-[[3-cyclopropyl-5-(2-methylpropylsulfamoyl)-8,9-dihydro-7H-cyclopenta[h]isoquinolin-9-yl]amino]pyridine-2-carboxylate], the IC50 is reported as 10 to 50 nM. Molecule `CC(C)CNS(=O)(=O)c1cc2c(c3cnc(C4CC4)cc13)C(Nc1ccc(C(=O)O)nc1)CC2` (stereo not shown) [Example 19, 5-[[3-cyclopropyl-5-(2-methylpropylsulfamoyl)-8,9-dihydro-7H-cyclopenta[h]isoquinolin-9-yl]amino]pyridine-2-carboxylic Acid] has an IC50 of 100 to 2000 nM. `CC(C)CNS(=O)(=O)c1cc2c(c3nnc(C4CC4)cc13)CCC2` [Example 22, 3-cyclopropyl-N-(2-methylpropyl)-8,9-dihydro-7H-cyclopenta[h]cinnoline-5-sulfonamide] showed an IC50 of 50 to 100 nM. Work on `Cc1cc(NC(=S)NC2CCc3c2cc(S(=O)(=O)NCC(C)(C)F)c2cc(C4CC4)nnc32)n(C)n1` (stereo not shown) [Example 23, 1-[3-cyclopropyl-5-[(2-fluoro-2-methylpropyl)sulfamoyl]-8,9-dihydro-7H-cyclopenta[h]cinnolin-7-yl]-3-(2,5-dimethylpyrazol-3-yl)thiourea] yielded an IC50 of 10 to 50 nM. With `Cc1cc(-n2cnnc2NC2CCc3c2cc(S(=O)(=O)NCC(C)(C)F)c2cc(C4CC4)nnc32)n(C)n1` (stereo not shown) [Example 24, 3-cyclopropyl-7-[[4-(2,5-dimethylpyrazol-3-yl)-1,2,4-triazol-3-yl]amino]-N-(2-fluoro-2-methylpropyl)-8,9-dihydro-7H-cyclopenta[h]cinnoline-5-sulfonamide] the IC50 was 10 to 50 nM. Work on `CC1CC1C(=O)NC1CCc2cc(S(=O)(=O)NCC(C)(C)F)c3cc(C4CC4)ncc3c21` (stereo not shown) [Example 26, N-[3-cyclopropyl-5-[(2-fluoro-2-methylpropyl)sulfamoyl]-8,9-dihydro-7H-cyclopenta[h]isoquinolin-9-yl]-2-methylcyclopropane-1-carboxamide] yielded an IC50 of 100 to 2000 nM. With `CC(C)CNS(=O)(=O)c1cc2c(c3cnc(C4CC4)c(F)c13)CCC2` [Example 27, 3-cyclopropyl-4-fluoro-N-(2-methylpropyl)-8,9-dihydro-7H-cyclopenta[h]isoquinoline-5-sulfonamide] the IC50 was 100 to 2000 nM. For `CC(C)(F)CNS(=O)(=O)c1cc2c(c3cnc(C4CC4)cc13)C(Nc1cncnc1)CC2` (stereo not shown) [Example 28, 3-cyclopropyl-N-(2-fluoro-2-methylpropyl)-9-(pyrimidin-5-ylamino)-8,9-dihydro-7H-cyclopenta[h]isoquinoline-5-sulfonamide], the IC50 was 50 to 100 nM. `CC(C)(F)CNS(=O)(=O)c1cc2c(c3cnc(C4CC4)cc13)C(Nc1ccc3c(c1)CC(=O)N3)CC2` (stereo not shown) [Example 29, 3-cyclopropyl-N-(2-fluoro-2-methylpropyl)-9-[(2-oxo-1,3-dihydroindol-5-yl)amino]-8,9-dihydro-7H-cyclopenta[h]isoquinoline-5-sulfonamide] showed an IC50 of 100 to 2000 nM. `COc1cncc(NC2CCc3cc(S(=O)(=O)NCC(C)(C)F)c4cc(C5CC5)ncc4c32)c1` (stereo not shown) [Example 30, 3-cyclopropyl-N-(2-fluoro-2-methylpropyl)-9-[(5-methoxypyridin-3-yl)amino]-8,9-dihydro-7H-cyclopenta[h]isoquinoline-5-sulfonamide] showed an IC50 of 10 to 50 nM. `CC(C)(F)CNS(=O)(=O)c1cc2c(c3cnc(C4CC4)cc13)CCC2Nc1cccnc1` (stereo not shown) [Example 31, 3-cyclopropyl-N-(2-fluoro-2-methylpropyl)-7-(pyridin-3-ylamino)-8,9-dihydro-7H-cyclopenta[h]isoquinoline-5-sulfonamide] was tested, and the IC50 was 10 to 50 nM. `CC(C)(F)CNS(=O)(=O)c1cc2c(c3cnc(C4CC4)cc13)C(Nc1cccnc1)CC2` (stereo not shown) [Example 32, 3-cyclopropyl-N-(2-fluoro-2-methylpropyl)-9-(pyridin-3-ylamino)-8,9-dihydro-7H-cyclopenta[h]isoquinoline-5-sulfonamide] gave an IC50 of 50 to 100 nM. `[2H]C([2H])(NS(=O)(=O)c1cc2c(c3cnc(C4CC4)cc13)CCC2NC(=O)OC(C)(C)C)C(C)C` (stereo not shown) [Example 33, tert-butyl N-[3-cyclopropyl-5-[(1,1-dideuterio-2-methylpropyl)sulfamoyl]-8,9-dihydro-7H-cyclopenta[h]isoquinolin-7-yl]carbamate] showed an IC50 of 100 to 2000 nM. Molecule `[2H]C([2H])(NS(=O)(=O)c1cc2c(c3cnc(C4CC4)cc13)CCC2N)C(C)C` (stereo not shown) [Example 34, 7-amino-3-cyclopropyl-N-(1,1-dideuterio-2-methylpropyl)-8,9-dihydro-7H-cyclopenta[h]isoquinoline-5-sulfonamide] has an IC50 of 100 to 2000 nM. Molecule `[2H]C([2H])(NS(=O)(=O)c1cc2c(c3cnc(C4CC4)cc13)CCC2n1cnnc1NCC1CC1)C(C)C` (stereo not shown) [Example 35, 3-cyclopropyl-7-[3-(cyclopropylmethylamino)-1,2,4-triazol-4-yl]-N-(1,1-dideuterio-2-methylpropyl)-8,9-dihydro-7H-cyclopenta[h]isoquinoline-5-sulfonamide] has an IC50 of 10 to 50 nM. `CC(C)(F)CNS(=O)(=O)c1cc2c(c3cnc(C4CC4)cc13)OCC2O` (stereo not shown) [Example 36, 7-cyclopropyl-N-(2-fluoro-2-methylpropyl)-3-hydroxy-2,3-dihydrofuro[3,2-h]isoquinoline-5-sulfonamide] gave an IC50 of 10 to 50 nM. Work on `CC(C)(F)CNS(=O)(=O)c1cc2c(c3cnc(C4CC4)cc13)CCC2n1nccc1NC(=O)C1CC1` (stereo not shown) [Example 38, N-[2-[3-cyclopropyl-5-[(2-fluoro-2-methylpropyl)sulfamoyl]-8,9-dihydro-7H-cyclopenta[h]isoquinolin-7-yl]pyrazol-3-yl]cyclopropanecarboxamide] yielded an IC50 of 100 to 2000 nM.
